biological target: T1, human FSH receptor (Homo sapiens, UniProt P23945); assay: HTRF assay for measuring cAMP in cells (FSH antagonism); type: cell-based; settings: hFSHR clone 16 cells (CHO cells stably transfected with the human FSH receptor); in the presence of 1e-9 mol/l hFSH; 37° C. for 2 h; read-out: IC50 (FSH-antagonistic effect in the HTRF assay)
T1 construct: expressed in transfected cells; host or cells: CHO cells (hFSHR clone 16)
T1 sequence (P23945 18-695): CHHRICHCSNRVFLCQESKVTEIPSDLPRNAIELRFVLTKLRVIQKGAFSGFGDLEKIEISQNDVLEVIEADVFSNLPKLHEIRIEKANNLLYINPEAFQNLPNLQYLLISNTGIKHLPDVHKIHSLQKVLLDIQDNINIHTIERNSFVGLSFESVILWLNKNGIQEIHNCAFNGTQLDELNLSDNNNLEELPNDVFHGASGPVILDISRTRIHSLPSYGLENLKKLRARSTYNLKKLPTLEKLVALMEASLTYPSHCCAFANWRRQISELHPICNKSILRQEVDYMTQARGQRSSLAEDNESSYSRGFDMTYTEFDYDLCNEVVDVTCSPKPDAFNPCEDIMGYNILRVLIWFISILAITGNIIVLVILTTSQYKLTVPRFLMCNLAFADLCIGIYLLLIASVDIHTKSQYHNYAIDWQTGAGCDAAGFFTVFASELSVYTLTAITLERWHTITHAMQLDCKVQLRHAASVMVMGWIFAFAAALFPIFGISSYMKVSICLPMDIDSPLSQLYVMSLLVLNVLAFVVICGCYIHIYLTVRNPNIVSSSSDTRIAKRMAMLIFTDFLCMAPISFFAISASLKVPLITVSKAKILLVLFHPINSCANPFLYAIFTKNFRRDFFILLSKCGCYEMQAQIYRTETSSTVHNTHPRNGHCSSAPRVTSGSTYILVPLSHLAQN
Protocol: HTRF Assay for Measuring cAMP in Cells
The method is based on a competitive immunoassay between native cAMP, which has been produced by the cells, and cAMP which is labelled with XL665. The tracer binding was visualized by a monoclonal antibody, anti-cAMP labelled with cryptate [HTRF=homogeneous time-resolved fluorescence].
The specific signal is inversely proportional to the cAMP concentration of the samples employed. The 665 nm/620 nm fluorescence ratio was evaluated.
The following material was used: 96-well plates for the tissue culture, 96-well plates with black edge and black base (e.g. Fluotrac 600 from Greiner), 96-well plates for the substance dilutions of polypropylene and cAMP Femtomolar (4000 wells Kit, CIS Bio International #62AM1PEC).
The following reagents were used: BSA (bovine serum albumin) Fraction V protease-free, IBMX (3-isobutyl-1-methylxanthine), hFSH (human follicle stimulating hormone), Triton X-100 analytical grade, potassium fluoride analytical grade, G 418 (Geneticin) and Accutase.
Buffer 1 (washing and testing buffer) contained PBS, 1 mM CaCl2, 1 mM MgCl2, 0.2% glucose; 0.1% BSA, 1 mM IBMX. Buffer 2 (2× lysis buffer) contained 1% Triton X-100 in PBS (without CaCl2 and MgCl2). Buffer 3 (assay buffer) contained 50 mM potassium phosphate buffer (pH 7.0); 800 mM potassium fluoride; 0.2% BSA (always added fresh).
On day 1, the cells were seeded in 96-well plates (3×10^4 cells per well hFSHR clone 16 cells (CHO cells stably transfected with the human FSH receptor in 150 μl of medium).
The next day, test substance dilutions were made up. For this purpose, all the substances were diluted in ice-cold buffer 1 (with or without hFSH), and the substance dilutions were placed on ice until applied to the cells.
The cell supernatant was then aspirated off, and the cells were washed 2× with 200 μl of buffer 1. The cells were treated with 60 μl of the appropriate substance concentrations at 37° C. for 2 h. The cells were then lysed with 60 μl of buffer 2 (put onto the supernatant) (on a plate shaker at RT for 30 min).
The test conjugates (XL-665 and anti-cAMP cryptate) were diluted in buffer 3 in accordance with the manufacturers' information. The actual mixture for measurement was pipetted into a black 96-well plate (in each case 15 μl of the cell lysate diluted with 35 μl of buffer 1; firstly 25 μl of XL-665 conjugate were pipetted and, after 10 min, 25 μl of the anti-cAMP cryptate were added). This is followed by incubation at RT for 90 minutes. The measurement was carried out in a PheraStar (BMG).
Dose-effect curve (hFSH) for the human receptor: 1e-8, 3e-9, 1e-9, 3e-10, 1e-10, 3e-11, 1e-11, 3e-12 mol/l.
The test substances were employed in suitable dilutions in the absence (test for agonism) and in the presence of 1e-9 mol/l hFSH.
The values of the well ratio were averaged and then entered directly in SigmaPlot versus the concentrations. The maximum and minimum values were determined for each plate, and half the difference is to be regarded as IC50.

| IC50 [µM] | SMILES |
| --- | --- |
| 9 | CNC(=O)c1ccc(C#Cc2ccc(OC(F)(F)F)c(C(=O)N[C@@H](CO)Cc3n[nH]c4cccc(F)c34)c2)cc1 (stereo in doubt) [Example 16, N-[2-hydroxy-1-(4-fluoro-1H-indazol-3-ylmethyl)-ethyl]-2-trifluoromethoxy-5-[(4-methylaminocarbonyl-phenyl)-ethynyl]-benzamide] |
| 5 | COc1ccccc1C#Cc1ccc(OC(C)C)c(C(=O)NC(CO)Cc2c[nH]c3cnccc23)c1 (centres unmarked) [Example 42, N-[2-Hydroxy-1-(1H-pyrrolo[2,3-c]pyridin-3-ylmethyl)-ethyl]-2-isopropoxy-5-(2-methoxy-phenylethynyl)-benzamide] |
| 8 | COc1ccc2nc(-c3cc(OC)c(OC)c(OC)c3)cc(C(=O)N[C@@H](CO)Cc3ccc4ccccc4c3)c2c1 [Example 9, 6-Methoxy-2-(3,4,5-trimethoxy-phenyl)-quinoline-4-carboxylic acid ((R)-2-hydroxy-1-naphthalen-2-ylmethyl-ethyl)-amide] |
| 1 | COc1ccc(-c2cc3c(c(C(=O)NC(CO)Cc4c[nH]c5cccnc45)c2)OCCCC3)cc1OC (centres unmarked) [Example 26, 7-(3,4-Dimethoxy-phenyl)-2,3,4,5-tetrahydro-benzo[b]oxepine-9-carboxylic acid [1-hydroxymethyl-2-(1H-pyrrolo[3,2-b]pyridin-3-yl)-ethyl]-amide] |
| 6 | COc1ccc2nc(-c3cc(OC)c(OC)c(OC)c3)cc(C(=O)N[C@@H](CO)Cc3csc4ccccc34)c2c1 [Example 6, 6-Methoxy-2-(3,4,5-trimethoxy-phenyl)-quinoline-4-carboxylic acid ((R)-2-benzo[b]-thiophen-3-yl-1-hydroxy-methyl-ethyl)-amide] |
| 10 | COc1ccc2nc(-c3cc(OC)c(OC)c(OC)c3)cc(C(=O)NC(CO)Cc3ccc4ccccc4c3)c2c1 (centres unmarked) [Example 12, 6-Methoxy-2-(3,4,5-trimethoxy-phenyl)-quinoline-4-carboxylic acid (2-hydroxy-1-naphthalen-2-ylmethyl-ethyl)-amide] |
| 4 | COc1ccccc1C#Cc1ccc(OC(C)C)c(C(=O)NC(CO)Cc2c[nH]c3ncccc23)c1 (centres unmarked) [Example 3, N-[1-Hydroxymethyl-2-(1H-pyrrolo[2,3-b]pyridin-3-yl)-ethyl]-2-isopropoxy-5-(2-methoxy-phenylethynyl)-benzamide] |
| 0.07 | CNC(=O)c1cc(F)cc(-c2ccc(OC(C)C)c(C(=O)NC(CO)Cc3cc4ncccc4[nH]3)c2)c1 (centres unmarked) [Example 24, 5′-Fluoro-4-isopropoxy-biphenyl-3,3′-dicarboxylic acid 3-{[1-hydroxymethyl-2-(1H-pyrrolo[3,2-b]pyridin-2-yl)-ethyl]-amide}3′-methyl amide] |
| 6.5 | CNC(=O)c1ccc(-c2ccc(OC(C)C)c(C(=O)NC(CO)Cc3c[nH]c4cnccc34)c2)cc1Cl (centres unmarked) [Example 39, 3′-Chloro-4-isopropoxy-biphenyl-3,4′-dicarboxylic acid 3-{[2-hydroxy-1-(1H-pyrrolo[2,3-c]pyridin-3-ylmethyl)-ethyl]-amide}4′-methylamide] |
| 0.2 | COc1ccccc1C#Cc1ccc(OC(C)C)c(C(=O)NC(CO)Cc2c[nH]c3cccnc23)c1 (centres unmarked) [Example 22, N-[1-Hydroxymethyl-2-(1H-pyrrolo[3,2-b]pyridin-3-yl)-ethyl]-2-isopropoxy-5-(2-methoxy-phenylethynyl)-benzamide] |
| 0.065 | CNC(=O)c1ccc(-c2cc3c(c(C(=O)NC(CO)Cc4c[nH]c5ncccc45)c2)OC(C)(C)C=C3)cc1Cl (centres unmarked) [Example 5, 6-(3-Chloro-4-methylcarbamoyl-phenyl)-2,2-dimethyl-2H-chromene-8-carboxylic acid [2-hydroxy-1-(1H-pyrrolo[2,3-b]pyridin-3-ylmethyl)-ethyl]-amide] |
| 1.5 | CNC(=O)c1cc(F)cc(-c2ccc(OC(C)C)c(C(=O)NC(CO)Cc3c[nH]c4ncccc34)c2)c1 (centres unmarked) [Example 1, 5′-Fluoro-4-isopropoxy-biphenyl-3,3′-dicarboxylic acid 3-{[2-hydroxy-1-(1H-pyrrolo[2,3-b]pyridin-3-ylmethyl)-ethyl]-amide}3′-methylamide] |
| 5 | CNC(=O)c1ccc(-c2ccc(OC(F)(F)F)c(C(=O)N[C@@H](CO)Cc3n[nH]c4c(F)cccc34)c2)cc1Cl [Example 14, 3′-Chloro-4-trifluoromethoxy-biphenyl-3,4′-dicarboxylic acid 3-{[2-hydroxy-1-(7-fluoro-1H-indazol-3-ylmethyl)-ethyl]-amide}4′-methylamide] |
| 5 | COc1ccc2nc(-c3ccc(OC)c(F)c3)nc(C(=O)NC(CO)Cc3c[nH]c4cccnc34)c2c1 (centres unmarked) [Example 21, 2-(3-Fluoro-4-methoxy-phenyl)-6-methoxy-quinazoline-4-carboxylic acid [2-hydroxy-1-(1H-pyrrolo[3,2-b]pyridin-3-ylmethyl)-ethyl]-amide] |

Source: patent US20090082372A1, “Arylmethylene Substituted N-Acyl-Beta-Amino Alcohols” (priority 2007, published 2009)
